From the supplement of paper PMC11616607

Tests used:
Experiment in all cases: drug sensitivity score (DSS) from 5-point dose-response viability curve (DSS (area-under-curve based score)); higher = more sensitive (stronger growth inhibition or killing); extreme values may be limits of the assay
Details in all cases: exposure time: 72 h; concentration range: 5 concentrations over 10,000-fold range
HOSE1C = tested on: HOSE1C
Outline: (§1)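 Ovarian cancer and normal ovarian cell lines were tested in 384-well plates. Drugs were acoustically dispensed (Echo 550) in DMSO or water at five concentrations spanning a 10,000-fold range, then 1,500 cells per well were added and incubated 3 days at 37°C, 5% CO2. Viability was read by CellTiter-Glo luminescence on a PHERAstar FS. Drug sensitivity score was derived per cell line and drug with Breeze software; higher means more sensitive, zero means no response.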

JHOS2 = tested on: JHOS2
Outline: as §1

OV90 = tested on: OV90
Outline: as §1

COV318 = tested on: COV318
Outline: as §1

COV362 = tested on: COV362
Outline: as §1

HOSE2C = tested on: HOSE2C
Outline: as §1

OVCAR4 = tested on: OVCAR4
Outline: as §1

Ovsaho = tested on: Ovsaho
Outline: as §1

OVCAR8 = tested on: OVCAR8
Outline: as §1

Kuramochi = tested on: Kuramochi
Outline: as §1

CAOV3 = tested on: CAOV3
Outline: as §1

OVCAR5 = tested on: OVCAR5
Outline: as §1

Row | Structure (SMILES) | drug sensitivity score (HOSE1C) | drug sensitivity score (JHOS2) | drug sensitivity score (OV90) | drug sensitivity score (COV318) | drug sensitivity score (COV362) | drug sensitivity score (HOSE2C) | drug sensitivity score (OVCAR4) | drug sensitivity score (Ovsaho) | drug sensitivity score (OVCAR8) | drug sensitivity score (Kuramochi) | drug sensitivity score (CAOV3) | drug sensitivity score (OVCAR5)
1 | CCNCCS(=O)(=O)NC[C@@]1(c2ccccc2)SC(NC(=O)C(C)(C)C)=NN1C(=O)C(C)(C)C [Litronesib] | 25 | 6.1 | 11.6 | 3.4 | 1.1 | 16.7 | 4.9 | 7.8 | 18.4 | 7.5 | 23.2 | 19
2 | Cc1nc(NC(=O)N2CCC[C@H]2C(N)=O)sc1-c1ccnc(C(C)(C)C(F)(F)F)c1 [Alpelisib] | 2.2 | 0.6 | 1 | 0.5 | 0 | 3.2 | 0.9 | 0.4 | 0.3 | 2.4 | 3.7 | 4.2
3 | COC(=O)c1ccc2c(c1)[nH]c1ncnc(NCCCN3CCCCC3)c12 [UM729] | 0.2 | 0 | 0 | 0 | 0 | 0 | 0 | 0.1 | 1.6 | 0 | 0 | 1
4 | Cc1cnc(Nc2ccc(OCCN3CCCC3)cc2)nc1Nc1cccc(S(=O)(=O)NC(C)(C)C)c1 [Fedratinib] | 7.1 | 5.3 | 8.8 | 3.7 | 6.1 | 8.5 | 5.2 | 7.4 | 7.1 | 7.7 | 6.5 | 7.2
5 | CN(C)C/C=C/C(=O)Nc1cc2c(Nc3ccc(F)c(Cl)c3)ncnc2cc1O[C@H]1CCOC1 [Afatinib] | 0 | 2.7 | 0 | 0 | 1.3 | 0 | 1 | 3.2 | 0.3 | 2.3 | 8.2 | 3.4
6 | CS(=O)(=O)c1ccc(C(=O)Nc2ccc(Cl)c(-c3ccccn3)c2)c(Cl)c1 [Vismodegib] | 3.8 | 0 | 0.1 | 0 | 0 | 0 | 0 | 0 | 0 | 0.1 | 0 | 0.1
7 | O=C(CCCCCCC(=O)Nc1ccc([C@H]2O[C@@H](CSc3nc(-c4ccccc4)c(-c4ccccc4)o3)C[C@@H](c3ccc(CO)cc3)O2)cc1)NO [Tubacin] | 2.5 | 1.7 | 2.4 | 2 | 0.7 | 2.6 | 2.7 | 2.3 | 5.6 | 2.6 | 1.8 | 2.4
8 | Cc1ccc(-n2nc(C(C)(C)C)cc2NC(=O)Nc2ccc(OCCN3CCOCC3)c3ccccc23)cc1 [Doramapimod] | 5 | 0 | 1.5 | 0 | 0 | 2.9 | 2.4 | 2.9 | 1.8 | 0.6 | 0 | 1.1
9 | NC1(c2ccc(-c3nc4ccn5c(=O)[nH]nc5c4cc3-c3ccccc3)cc2)CCC1 [MK-2206] | 2.1 | 0 | 1.9 | 1.2 | 0.4 | 2.6 | 0.4 | 2.6 | 0 | 4.4 | 1.9 | 2
10 | CO[C@H]1C[C@@H]2CC[C@@H](C)[C@@](O)(O2)C(=O)C(=O)N2CCCC[C@H]2C(=O)O[C@H]([C@H](C)C[C@@H]2CC[C@@H](OCCO)[C@H](OC)C2)CC(=O)[C@H](C)/C=C(\C)[C@@H](O)[C@@H](OC)C(=O)[C@H](C)C[C@H](C)/C=C/C=C/C=C/1C [Everolimus] | 4.3 | 4.7 | 10 | 2.2 | 0.6 | 6.3 | 2.5 | 4 | 5.5 | 5.9 | 4.8 | 6.2
11 | CC(=O)[C@]1(O)Cc2c(O)c3c(c(O)c2[C@@H](O[C@H]2C[C@H](N)[C@H](O)[C@H](C)O2)C1)C(=O)c1ccccc1C3=O [Idarubicin] | 14.2 | 7.1 | 10.7 | 6.1 | 4.8 | 13.7 | 6.3 | 11.7 | 10.3 | 5.1 | 12 | 7.7
12 | CCOCc1nc2c(N)nc3ccccc3c2n1CC(C)(C)O [Resiquimod] | 0 | 0.6 | 0 | 0 | 0 | 0 | 0.3 | 0.3 | 0 | 1.2 | 0 | 0.3
13 | CN(C)CCCOc1ccc(-c2ccc3ncc4c(c3c2)n(C2CCOCC2)c(=O)n4C)cn1 [AZD0156] | 1 | 0 | 1.1 | 0 | 0 | 0 | 0 | 3.2 | 0 | 0.2 | 1.2 | 1.4
14 | COc1ccc(C[C@H](NC(=O)[C@H](C)NC(=O)CN2CCOCC2)C(=O)N[C@@H](Cc2ccccc2)C(=O)C2(C)CO2)cc1 (stereo in doubt) [ONX-0914] | 27.9 | 16.1 | 19.8 | 12.3 | 17.9 | 21.3 | 17.1 | 19.6 | 17.7 | 11.6 | 17.9 | 18.2
15 | COc1cc(NS(C)(=O)=O)ccc1Nc1c2ccccc2nc2ccccc12 [Amsacrine] | 13.7 | 3.8 | 7.3 | 0.6 | 1 | 16.7 | 0.2 | 5.5 | 10 | 0 | 13.7 | 6
16 | CC(C)(C)c1cc(NC(=O)Nc2ccc(-c3cn4c(n3)sc3cc(OCCN5CCOCC5)ccc34)cc2)no1 [Quizartinib] | 0 | 0 | 0.2 | 0 | 0 | 0.8 | 1.5 | 0.2 | 2.2 | 0 | 0 | 0.8
17 | C=CC(=O)Nc1cccc(Oc2nc(Nc3ccc(N4CCN(C)CC4)cc3)nc3ccsc23)c1 [Olmutinib] | 0 | 0 | 0 | 0.3 | 0.6 | 0 | 0.1 | 0.5 | 0 | 0.7 | 0.3 | 0.7
18 | CCCCCCCCCCCCCCCCOP(=O)([O-])OCC[N+](C)(C)C [Miltefosine] | 5.5 | 11.5 | 4.1 | 4.7 | 3.4 | 5.9 | 3.5 | 7.3 | 5 | 5.8 | 12.8 | 9.1
19 | NC(=O)Nc1cc(-c2cccc(F)c2)sc1C(=O)N[C@H]1CCCNC1 [AZD7762] | 7.4 | 1.9 | 6.4 | 5 | 7 | 7.8 | 7 | 4 | 5.2 | 4.2 | 6.1 | 6.6
20 | CN1CCN(c2nc(C3=C(c4c[nH]c5ccccc45)C(=O)NC3=O)c3ccccc3n2)CC1 [Sotrastaurin] | 0 | 0.2 | 0 | 0 | 1.5 | 0 | 0 | 0 | 0.1 | 0 | 1.2 | 0
21 | CC#CC(=O)N1CCC[C@H]1c1nc(-c2ccc(C(=O)Nc3ccccn3)cc2)c2c(N)nccn12 [Acalabrutinib] | 0 | 0.8 | 0 | 3.5 | 0.3 | 0 | 2.1 | 1 | 0 | 6.2 | 0 | 0.2
22 | CCC/C=C/C=C/C(=O)O[C@H]1/C(=C/C(=O)OC)C[C@H]2C[C@H]([C@@H](C)O)OC(=O)C[C@H](O)C[C@@H]3C[C@H](OC(C)=O)C(C)(C)[C@](O)(C[C@@H]4C/C(=C/C(=O)OC)C[C@H](/C=C/C(C)(C)[C@]1(O)O2)O4)O3 [Bryostatin 1] | 10.3 | 0 | 1.4 | 1.4 | 8.9 | 1.6 | 1.1 | 0 | 0 | 0 | 0.1 | 0.2
23 | COc1cc2nccc(Oc3ccc(NC(=O)NC4CC4)c(Cl)c3)c2cc1C(N)=O [Lenvatinib] | 0.4 | 0.1 | 0.1 | 0.9 | 0 | 2.9 | 0.6 | 0.1 | 0 | 0 | 0 | 0
24 | CC[C@@H]1C(=O)N(C)c2cnc(Nc3ccc(C(=O)N[C@H]4CC[C@H](N5CCN(CC6CC6)CC5)CC4)cc3OC)nc2N1C(C)C [Volasertib] | 9.7 | 7.1 | 11.5 | 4.1 | 3.2 | 6.3 | 4.4 | 10.4 | 15.5 | 7.3 | 13.1 | 12.2
25 | CC(C)N(C[C@H]1O[C@@H](n2cnc3c(N)ncnc32)[C@H](O)[C@@H]1O)[C@H]1C[C@@H](CCc2nc3cc(C(C)(C)C)ccc3[nH]2)C1 [Pinometostat] | 0 | 0 | 0 | 0 | 0 | 0 | 0 | 0 | 0 | 0 | 0 | 0
26 | CNC(=O)c1cc(Oc2ccc(NC(=O)Nc3ccc(Cl)c(C(F)(F)F)c3)c(F)c2)ccn1 [Regorafenib] | 1.6 | 1.3 | 7.9 | 0.6 | 0.6 | 2.7 | 1.6 | 2 | 4.1 | 1.2 | 2 | 4.4
27 | CO[C@@H](C(=O)N1Cc2[nH]nc(NC(=O)c3ccc(N4CCN(C)CC4)cc3)c2C1)c1ccccc1 [Danusertib] | 7.4 | 3.1 | 4.9 | 4.3 | 5.6 | 12.5 | 8.7 | 14.7 | 8.7 | 11.1 | 23.5 | 7.2
28 | COc1cccc2c1c(O)c(C(=O)N(C)c1ccc(C(F)(F)F)cc1)c(=O)n2C [Tasquinimod] | 0 | 0.6 | 0 | 0 | 0 | 0 | 1.9 | 2 | 0 | 0.2 | 0 | 0
29 | O=c1ncn2nc(Sc3ccc(F)cc3F)ccc2c1-c1c(Cl)cccc1Cl [Neflamapimod] | 0.1 | 0 | 0.4 | 0.8 | 0 | 0 | 0.4 | 0 | 0.9 | 2 | 0 | 0.8
